Measurements from publication PMC3923730 (Journal of Translational Medicine, 2014).
Values joined by “and” are separate entries in the source; they are usually repeats but may differ in a detail not shown here. Equal values may be shown once.

Tests used:
[1] = Pharmacokinetics in rats (plasma); type: in vivo; conditions: rat plasma
Description: TRO40303 was administered by intravenous (i.v.) bolus to healthy rats at doses of 0.3, 1, 3 and 10 mg/kg in IL30 under isoflurane gas anaesthesia. A maximum of 0.25 mL of blood was collected into lithium heparin tubes at 5, 15 and 30 min, 1 h, 2 h, 4 h, 8 h and 24 h after drug administration (3 rats per time point). The blood samples were cooled on ice and plasma samples were prepared within 60 min of sampling by centrifugation at 1500 g at 4 °C for 10 min and stored at –20°C until analysis. For heart level measurements, TRO40303 was administrated i.v. to rats undergoing the myocardial infarction procedure at the dose of 1 mg/kg in IL30 either 10 min before CAO or 10 min before CAR. Five min after CAR, rats were anesthetised and sacrificed, hearts were isolated and washed with saline. Tissue from AAR was separated from the remainder of the left ventricle; samples were frozen and stored at –20°C until analysis. After TRO40303 plasma concentration analysis, TRO40303 plasma AUC(0-∞) (the area under the curve extrapolated from time zero to time infinity), was calculated using Kinetica™, version 4.4.1 (Thermo Electron Corporation, Philadelphia, PA 19103, USA). The results were analyzed in comparison with previous pharmacokinetic data obtained with TRO40303 formulated in HPBCD at 2.5 mg/kg.
Thawed preclinical samples were extracted with acetonitrile, centrifuged, purified on SPEC C2 cartridge (Varian) for the heart samples and analysed along with calibration standards. Analysis was carried out on an Alliance 2695 (Waters) system interfaced to an API Quattro Micro (Waters) MS detector. Calculations were carried out with Waters QuanLynx software.

[2] = tested on: isolated rat heart; experiment: Langendorff isolated rat heart ischemia-reperfusion, hemodynamic measurements; conditions: 1 μM, vs 0.03% HPBCD
Description: Ischemic reperfusion of Langendorff isolated rat heart was performed as previously described. Rat hearts were perfused either with TRO40303 1 μM (0.5 mg/mL stock in 30% HPBCD diluted 1000X in Krebs-Henseleit (KH) buffer (n = 29)) or vehicle (30% HPBCD diluted 1000X in KH buffer (n = 24)) during 30 min equilibration, 10 min low flow ischemia, and 60 min reperfusion following 30 min of total ischemia. During the reperfusion period, the following parameters were monitored via a water-filled latex balloon inserted into the left ventricle: left ventricular end diastolic pressure (LVEDP); left ventricular developed pressure (Pdev); its first derivative (dP/dt) and heart rate. Coronary flow was measured by collecting the coronary perfusate over 1 min. The rate-pressure product (RPP) was calculated as the product of Pdev and heart rate. Some of the hearts from this main experiment were used to assess ascorbate, reactive oxygen species (ROS) and lipid peroxidation as described below.

[3] = tested on: isolated rat heart; experiment: Free radical (ESR) and lipid peroxidation (MDA-TBA) measurements in isolated rat heart; conditions: 1 μM
Description: To evaluate the effect of 1 μM TRO40303 on ischemia-reperfusion-induced ascorbate release and tissue depletion, effluents from control and treated hearts undergoing the perfusion protocol described above (n = 6/group) were collected for 15 s, 1 min following onset of reflow, and hearts were frozen in liquid nitrogen at the end of the reperfusion period. Ascorbate content in effluents and tissue homogenates was then assessed by quantifying the ascorbyl free radical (AFR)-dimethyl sulfoxide (DMSO) electron spin resonance (ESR) doublet as previously described, DMSO being used to stabilize the ascorbate free radical.
To investigate whether TRO40303 could interfere with ischemia-reperfusion-triggered ROS production, hearts (n = 6) undergoing the perfusion protocol described above received the spin trap nitrone DMPO (25 mM) during the first 5 min of reperfusion. A 15-s collection of the effluents was performed pre-ischemically on three additional hearts from both groups, and 3 min after onset of reflow for the 6 ischemic/reperfused hearts. Samples were immediately stored in liquid nitrogen. The free radical content of DMPO-supplemented from TRO40303-treated and control effluents was determined by ESR in glass capillaries. The ESR signal was acquired 1.5 min after thawing of the sample using the same parameters as for ascorbate except: modulation amplitude 0.0313 mT, receiver gain 5 × 10^4 and sweep rate for each scan 0.167 mT/s.
Lipid peroxidation in heart tissue at the end of reperfusion was evaluated using the malondialdehyde-thiobarbituric acid assay (MDA-TBA) (n = 8/group) as previously described.

[4] = tested on: Domestic Yorkshire pigs; experiment: Porcine liposome-induced cardio-pulmonary distress model; type: in vivo; conditions: pig, 10 mg/kg i.v. liposomal formulation
Description: Domestic Yorkshire pigs (12-14 weeks, ~25 kg) received multiple i.v. injections of the test material via the external jugular vein at 10 mL/min as follows: saline as a negative control, the liposomal formulation of TRO40303 at 10 mg/kg and a bolus of Doxil® at 0.01 mg/kg as a positive control. Doxil® is a marketed liposomal formulation of doxorubicin administered intravenously that can provoke acute infusion-related reactions.
Hemodynamic changes were monitored continuously for at least 30 min after the end of each test material infusion. Systemic arterial blood pressure (SAP) and pulmonary arterial blood pressure (PAP) changes were evaluated.

[5] = Pharmacokinetic based allometry to human; conditions: allometric scaling, body weights 50-115 kg, 95% CI
Description: Pharmacokinetic based allometry (natural logarithm (ln) transformation) was performed using available pharmacokinetic data (not shown) from various animal species and was used to estimate clearance (CL) and the initial volume of distribution (V1 = Dose/C0; C0 defined as the extrapolated plasma concentration at time zero) in human. Animals had received a single i.v. bolus dose of TRO40303 administered under lipid-based formulations (Intralipid® and liposomes) in rats and pigs or under cremophor EL®/ethanol/saline formulation in dogs and monkeys. The pharmacokinetic parameters were assessed from the mean (for rodents) or individual TRO40303 plasma concentration versus time profiles using a non-compartmental approach “Log Linear Method” (Kinetica™, version 4.4.1). The ln of the CL and the ln of V1 were each plotted against the ln of the animals’ body weight. Finally, using this relationship, the human CL and V1 were estimated based on the human body weight ranging from 50 to 115 kg.

[6] = Solubility in formulation vehicle; type: physicochemical; conditions: in Intralipid® 30 (IL30), concentrations up to
[7] = tested on: myocardial infarction model in rats; parameters: method as in PMID 20215409; conditions: rat myocardial infarction model, 2.5 mg/kg formulated in HPBCD; cited from earlier work

SMILES: CC(C)CCC[C@@H](C)[C@H]1CC[C@H]2[C@@H]3CC/C(=N\O)[C@](C)(CCCO)[C@H]3CC[C@]12C [TRO40303, 3,5-seco-4-nor-cholestan-5-one oxime-3-ol]
- AUC(0-∞) ([1]; 3 mg/kg i.v. in IL30, satellite animals): 14000 ng·h/mL
- C5min ([1]; 3 mg/kg i.v. in IL30, satellite animals, 3 mg/kg): 57.9 μM and 23.5 μg/mL
- AUC(0-∞) ([1]; 10 mg/kg i.v. in IL30, satellite animals): 44800 ng·h/mL
- C5min ([1]; 10 mg/kg i.v. in IL30, satellite animals, 10 mg/kg): 130 μM and 52.8 μg/mL
- recovery of LVEDP at reperfusion ([2]; 60 min reperfusion after 30 min total ischemia): greatly and significantly improved
- contractility (dP/dt) ([2]; reperfusion): improved
- developed pressure (Pdev) ([2]; reperfusion): improved
- rate-pressure product (RPP) ([2]; reperfusion): significantly higher
- recovery of coronary flow ([2]; reperfusion): better recovery
- decrease of DMPO-OH ESR signal intensity in coronary effluents ([3]; 25 mM DMPO at reperfusion, 3 min after onset of reflow, p < 0.05, n = 6): 69%
- AFR-DMSO release in the coronary effluents versus untreated hearts ([3]; early reperfusion (1st min), p < 0.001, n = 6): –57%
- tissue AFR-DMSO versus untreated hearts ([3]; end of reflow, p < 0.05, n = 6): +24%
- MDA-TBA formation compared to vehicle-perfused hearts ([3]; heart tissue at end of reperfusion, p < 0.01, n = 8): –65%
- change in systemic arterial blood pressure (SAP) [4]: not changed
- predicted human CL [5]: 0.883 to 3.97 mL/min/kg
- predicted human V1 [5]: 0.089 to 0.741 L/kg
- solubility [6]: ~ 6 mg/mL
- reduction of infarct size [7]: 38%
